Columns and labels:
PmeR = biological target: T1, PmeR (Pseudomonas syringae group genomosp. 3, UniProt Q87X86); test: EMSA, release of PmeR from […]-labelled operator DNA; type: binding; conditions: 6.25 nM PmeR, 1.5 nM pmeR-mexA intergenic DNA probe, pH 8.0, 25 °C; lowest complete-release concentration in a dilution series, not a Kd or IC50
T1 construct: gene PSPTO_4302; full-length coding region (672 bp), N-terminal His tag, pET-28a, E. coli BL21(DE3), codon-optimized; nickel column; tag removal not mentioned

[1] = biological target: T2, PmeR (TetR-like regulator) (Pseudomonas syringae strain PtoDC3000) (UniProt Q87X86); test: competition; conditions: 25 mM Tris-acetate pH 8.0, 8 mM Mg-acetate, 10 mM KCl, 1 mM DTT, 460 uM HCl ([…]
T2 sequence: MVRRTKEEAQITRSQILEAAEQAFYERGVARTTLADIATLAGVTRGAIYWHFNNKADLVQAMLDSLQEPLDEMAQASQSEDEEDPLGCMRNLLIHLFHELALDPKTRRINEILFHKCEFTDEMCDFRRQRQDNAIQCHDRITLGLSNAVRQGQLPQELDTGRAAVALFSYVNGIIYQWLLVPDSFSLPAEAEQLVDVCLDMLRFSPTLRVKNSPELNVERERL

| Molecule | concentration sufficient for complete shift to unbound DNA (PmeR) [µM] | binding [1] |
| --- | --- | --- |
| N[C@@H](CCCCNC(=O)Cc1c[nH]c2ccccc12)C(=O)O [IAA-Lys] | 750 |  |
| CGGAATTCGGTGCGACGAACCATGGCAATAAGACCTCAAAAGATTCACCTCATGCGTGCATCTGGTGCATGCCTTGAGGTATGACCGGGCGGCATTTGTCTCGCCTTGTCCCGAACTGGCATTCAGCACCTTGAATAGTGGCCGAATGCGCAAAGCGGGTGTTTACAAACAACCGCGAATGTAAGTATATTCCTTAGCATGCTACTTATCTAGCCGAAATATTTTTTAACACTTCAACGTACTGTTGAGAAAACAGGCTCCTGCCCCGAGGATCTTCGGTACCCC (double strand) [pmeR-mexA intergenic region probe] |  | binds |
